Source: US20120028897A1, “METHODS AND COMPOSITIONS FOR THE TREATMENT OF FLUID RETENTION DISORDERS” (priority 2008, published 2012)

How the values were obtained:
anesthetized rats [1] = assay: Mean arterial blood pressure during and after iv peptide infusion; assay type: in vivo, rat
Description: (§1) Rats were not fasted prior to clearance experiments and ranged in weight from 250-340 g at the time of study. Anesthesia was induced with an intraperitoneal injection of pentobarbital sodium (55 mg/kg BW) and maintained at a surgical plane by intermittent intravenous supplementation. Core temperature was maintained at 37° C. by a servo-controlled, heated operating table. Animals breathed spontaneously through a PE240 cannula inserted into the trachea. A jugular vein was catheterized with PE50 cannula tubing for intravenous infusion of isotonic saline containing FITC-labeled inulin (0.4% W/V, Sigma, St Louis Mo.) and two PE10 cannulae, one for supplemental anesthetic and the other for peptide infusions (described below in the experimental protocol section). The ureters were exposed through a midline ventral incision and cannulated with PE10 tubing about one cm from each kidney. Urine was collected over 20 min periods and the volume estimated by weight. A femoral artery was cannulated with PE50 tubing for continuous measurement of arterial blood pressure and intermittent blood samples (50 μl), taken at the mid point of each urine collection.
(§2) Arterial blood pressure was measured with a pressure transducer connected to a cardiovascular analyzer (Model 50110, Stoelting Instruments Wood Dale, Ill.). Left renal blood flow was measured in some rats with a flow probe positioned on the left renal artery and connected to a blood flow monitor (model 1 PRB probe and model T420 monitor, Transonic Systems Inc. Ithaca N.Y.). Arterial pressure, heart rate, and renal blood flow were digitized with an A/D converter (Keithley instruments, Cleveland, Ohio Model KUSB 3100) for display and storage on a Windows-based personal computer using open layers data acquisition software (Dtx_Ez, Data Translation Inc, Marlboro, Mass.). Sodium and potassium concentrations in plasma and urine were measured by flame photometry (Model 943, Instrumentation Laboratory Co., Lexington Mass.). Glomerular filtration rate (GFR) was measured as the renal clearance rate of FITC-labeled inulin
(§3) After post-surgical equilibration (−60 min) and three 20 min control clearance periods, huUgnA or B was infused into the jugular vein at 10 μl/min over a 60 min period, followed by a return to isotonic saline for the remainder of the experiment. The infused doses of huUgnA were 12, 25, 50, 100, or 200 nmol/kg BW in a total of 38 rats; huUgnB doses were 9, 18, 35, 70, and 140 nmol/kg BW in 35 rats. A UgnA mimetic, E. coli STh (ST-core), was infused into a third group of 32 rats at doses of 17, 32, 66, 133, and 266 nmol/kg. Renal excretory responses to these infusions were slow to develop and long lasting, so clearance periods were continued for 2-3 hr after the termination of the peptide infusion. This protracted time course limited protocols to one dose of one peptide in each rat. A control group of 10 rats received isotonic saline at 10 μl/min in place of the peptide infusion, but was otherwise treated in the same way as the experimental groups.
Group comparisons were made with one way analysis of variance (ANOVA) using peptide doses as column variables. Columns were further divided into pre-infusion, infusion, and post infusion subgroups to facilitate post hoc testing with Bonferroni's method for selected multiple comparisons. Row variables were individual measurements from each clearance period for each rat. Responses were tested for statistical significance by comparing control values during the pre-infusion, infusion and post infusion collection periods with corresponding values obtained from peptide-infused rats. Each experimental group included 5 different doses of huUgnA, huUgnB, or ST-core. Thus, fifteen comparisons were required for each measured variable in each group.

[2] = molecular target: cultured GC-C-expressing cells (Homo sapiens, UniProt P25092); conditions: read-out: EC50, cGMP responses; cited from earlier work
cultured GC-C-expressing cells, sequence (P25092 24-1073): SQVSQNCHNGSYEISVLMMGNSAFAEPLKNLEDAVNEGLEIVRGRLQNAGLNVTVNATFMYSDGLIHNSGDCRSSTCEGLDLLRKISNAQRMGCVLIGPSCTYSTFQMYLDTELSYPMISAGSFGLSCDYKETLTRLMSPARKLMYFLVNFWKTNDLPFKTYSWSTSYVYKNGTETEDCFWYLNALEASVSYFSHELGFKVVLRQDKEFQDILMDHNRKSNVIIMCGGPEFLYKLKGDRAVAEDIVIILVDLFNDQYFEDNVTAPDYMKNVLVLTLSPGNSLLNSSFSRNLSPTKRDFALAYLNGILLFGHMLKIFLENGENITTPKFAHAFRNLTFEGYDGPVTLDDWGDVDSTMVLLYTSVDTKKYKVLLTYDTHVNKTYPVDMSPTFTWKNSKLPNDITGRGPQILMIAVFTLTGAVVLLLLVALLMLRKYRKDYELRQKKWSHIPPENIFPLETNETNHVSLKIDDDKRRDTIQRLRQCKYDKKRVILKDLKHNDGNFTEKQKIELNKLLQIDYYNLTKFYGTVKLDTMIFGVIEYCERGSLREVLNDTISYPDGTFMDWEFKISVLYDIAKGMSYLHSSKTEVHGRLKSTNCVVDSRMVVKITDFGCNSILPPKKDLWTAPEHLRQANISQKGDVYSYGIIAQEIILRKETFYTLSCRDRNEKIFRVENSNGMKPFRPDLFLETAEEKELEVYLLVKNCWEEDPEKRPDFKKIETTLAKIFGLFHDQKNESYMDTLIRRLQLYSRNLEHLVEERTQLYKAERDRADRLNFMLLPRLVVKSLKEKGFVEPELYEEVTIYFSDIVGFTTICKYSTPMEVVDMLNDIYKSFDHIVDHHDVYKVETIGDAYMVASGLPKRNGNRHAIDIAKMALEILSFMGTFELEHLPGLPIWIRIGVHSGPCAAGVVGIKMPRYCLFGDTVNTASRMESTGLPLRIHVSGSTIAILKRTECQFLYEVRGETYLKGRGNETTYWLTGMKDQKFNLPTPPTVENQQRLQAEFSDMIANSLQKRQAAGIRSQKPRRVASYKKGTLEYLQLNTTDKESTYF

anesthetized rats [3] = assay: Renal sodium excretion during and after iv peptide infusion in anesthetized rats; assay type: in vivo, rat
Description: as §1
All rats received a continuous intravenous infusion (10 μl/min/100 g BW) of isotonic saline containing FITC-labeled inulin for measurement of inulin clearance. Uncongugated FITC label and small inulin polymers were removed from the inulin solution by overnight dialysis against isotonic saline (SpectraPor 6 dialysis membrane, 1 kDa cutoff-limit, Spectrum Laboratories, Rancho Domingo, Calif.). Undissolved particulates were removed from the solution by filtration through a […] filter before each experiment (Steriflip, Millipore Inc. Billerica, Mass.). At least one hr was allowed for equilibration before the start of urine collections, at which point plasma inulin concentration had stabilized at an average value of 30±3 μg/ml.
as §2, §3
The effects of combined infusions of huUgnA and B were investigated in two groups of rats that received 35 nmol/kg of huUgnB together with either 25 nmol/kg (n=5) or 100 nmol/kg of huUgnA (n=5). […]

[4] = huUgnA 25 nmol, Post-infuse, *** p<0.005 vs time control

**Q.** With `CC(C)C[C@H](NC(=O)[C@@H]1CSSC[C@@H]2NC(=O)[C@H](CC(C)C)NC(=O)[C@H](CCC(=O)O)NC(=O)[C@@H](NC(=O)[C@H](CC(=O)O)NC(=O)[C@H](CC(=O)O)NC(=O)[C@@H](N)CC(N)=O)CSSC[C@H](NC(=O)[C@H](C)NC(=O)[C@H](C(C)C)NC(=O)[C@H](CC(N)=O)NC(=O)[C@H](C(C)C)NC2=O)C(=O)N[C@@H]([C@@H](C)O)C(=O)NCC(=O)N1)C(=O)O` (single isomer, unassigned) [huUgnA, Asn Asp Asp Cys Glu Leu Cys Val Asn Val Ala Cys Thr Gly Cys Leu, reference compound] as the molecule, how does the “BP (mean arterial blood pressure)” value (anesthetized rats [1]; huUgnA 12 nmol, Infusion) read?
**A.** 110 ± 4 mmHg

**Q.** What about the “BP (mean arterial blood pressure)” value (anesthetized rats [1]; huUgnA 12 nmol, Post-infuse) of the same molecule?
**A.** 104 ± 3 mmHg

**Q.** And the “BP (mean arterial blood pressure)” value (anesthetized rats [1]; huUgnA 12 nmol, Pre-infuse)?
**A.** 121 ± 4 mmHg

**Q.** And the “BP (mean arterial blood pressure)” value (anesthetized rats [1]; huUgnA 25 nmol, Infusion)?
**A.** 111 ± 4 mmHg

**Q.** And the “BP (mean arterial blood pressure)” value (anesthetized rats [1]; huUgnA 25 nmol, Post-infuse)?
**A.** 105 ± 4 mmHg

**Q.** What about the “BP (mean arterial blood pressure)” value (anesthetized rats [1]; huUgnA 25 nmol, Pre-infuse) of the same molecule?
**A.** 119 ± 3 mmHg

**Q.** What about the “BP (mean arterial blood pressure)” value (anesthetized rats [1]; huUgnA 50 nmol, Infusion) of the same molecule?
**A.** 106 ± 3 mmHg

**Q.** And the “BP (mean arterial blood pressure)” value (anesthetized rats [1]; huUgnA 50 nmol, Post-infuse)?
**A.** 101 ± 3 mmHg

**Q.** And the “BP (mean arterial blood pressure)” value (anesthetized rats [1]; huUgnA 50 nmol, Pre-infuse)?
**A.** 117 ± 3 mmHg

**Q.** What about the “BP (mean arterial blood pressure)” value (anesthetized rats [1]; huUgnA 100 nmol, Infusion) of the same molecule?
**A.** 115 ± 3 mmHg

**Q.** And the “BP (mean arterial blood pressure)” value (anesthetized rats [1]; huUgnA 100 nmol, Post-infuse)?
**A.** 109 ± 4 mmHg

**Q.** And the “BP (mean arterial blood pressure)” value (anesthetized rats [1]; huUgnA 100 nmol, Pre-infuse)?
**A.** 121 ± 4 mmHg

**Q.** And the “BP (mean arterial blood pressure)” value (anesthetized rats [1]; huUgnA 200 nmol, Infusion)?
**A.** 113 ± 5 mmHg

**Q.** And the “BP (mean arterial blood pressure)” value (anesthetized rats [1]; huUgnA 200 nmol, Post-infuse)?
**A.** 112 ± 4 mmHg

**Q.** What about the “BP (mean arterial blood pressure)” value (anesthetized rats [1]; huUgnA 200 nmol, Pre-infuse) of the same molecule?
**A.** 121 ± 7 mmHg

**Q.** And the EC50 [2]?
**A.** ~100 nM

**Q.** And the “single effective dose, cumulative sodium excretion” value (anesthetized rats [3]; FIG. 6B, lower or higher doses not different from control)?
**A.** 25 nmol/kg

**Q.** And the “FENa (fractional sodium excretion)” value (anesthetized rats [3]; huUgnA 12 nmol, Infuse)?
**A.** 0.10 ± 0.02 % of filtered

**Q.** And the “UNaV (sodium excretion)” value (anesthetized rats [3]; huUgnA 12 nmol, Infusion)?
**A.** 118.1 ± 25 nEq/min/g KW

**Q.** And the “FENa (fractional sodium excretion)” value (anesthetized rats [3]; huUgnA 12 nmol, Post-infuse)?
**A.** 0.17 ± 0.02 % of filtered

**Q.** And the “UNaV (sodium excretion)” value (anesthetized rats [3]; huUgnA 12 nmol, Post-infuse)?
**A.** 222 ± 33 nEq/min/g KW

**Q.** What about the “FENa (fractional sodium excretion)” value (anesthetized rats [3]; huUgnA 12 nmol, Pre-infuse) of the same molecule?
**A.** 0.08 ± 0.02 % of filtered

**Q.** What about the “UNaV (sodium excretion)” value (anesthetized rats [3]; huUgnA 12 nmol, Pre-infuse) of the same molecule?
**A.** 85 ± 20 nEq/min/g KW

**Q.** And the “FENa (fractional sodium excretion)” value (anesthetized rats [3]; huUgnA 25 nmol, Infuse, * p<0.05 vs time control)?
**A.** 0.27 ± 0.08* % of filtered

**Q.** What about the “UNaV (sodium excretion)” value (anesthetized rats [3]; huUgnA 25 nmol, Infusion, * p<0.05 vs time control) of the same molecule?
**A.** 291.7 ± 77* nEq/min/g KW

**Q.** What about the “FENa (fractional sodium excretion)” value (anesthetized rats [3]; [4]) of the same molecule?
**A.** 0.68 ± 0.08*** % of filtered

**Q.** And the “UNaV (sodium excretion)” value (anesthetized rats [3]; [4])?
**A.** 664 ± 75*** nEq/min/g KW

**Q.** And the “FENa (fractional sodium excretion)” value (anesthetized rats [3]; huUgnA 25 nmol, Pre-infuse)?
**A.** 0.09 ± 0.01 % of filtered

**Q.** What about the “UNaV (sodium excretion)” value (anesthetized rats [3]; huUgnA 25 nmol, Pre-infuse) of the same molecule?
**A.** 93 ± 7 nEq/min/g KW

**Q.** What about the “FENa (fractional sodium excretion)” value (anesthetized rats [3]; huUgnA 50 nmol, Infuse) of the same molecule?
**A.** 0.10 ± 0.01 % of filtered

**Q.** And the “UNaV (sodium excretion)” value (anesthetized rats [3]; huUgnA 50 nmol, Infusion)?
**A.** 117.5 ± 22 nEq/min/g KW

**Q.** What about the “FENa (fractional sodium excretion)” value (anesthetized rats [3]; huUgnA 50 nmol, Post-infuse) of the same molecule?
**A.** 0.28 ± 0.05 % of filtered

**Q.** And the “UNaV (sodium excretion)” value (anesthetized rats [3]; huUgnA 50 nmol, Post-infuse, * p<0.05 vs time control)?
**A.** 342 ± 63* nEq/min/g KW

**Q.** What about the “FENa (fractional sodium excretion)” value (anesthetized rats [3]; huUgnA 50 nmol, Pre-infuse) of the same molecule?
**A.** 0.06 ± 0.01 % of filtered

**Q.** What about the “UNaV (sodium excretion)” value (anesthetized rats [3]; huUgnA 50 nmol, Pre-infuse) of the same molecule?
**A.** 73 ± 10 nEq/min/g KW

**Q.** And the “FENa (fractional sodium excretion)” value (anesthetized rats [3]; huUgnA 100 nmol, Infuse)?
**A.** 0.12 ± 0.03 % of filtered

**Q.** And the “UNaV (sodium excretion)” value (anesthetized rats [3]; huUgnA 100 nmol, Infusion)?
**A.** 130.8 ± 32 nEq/min/g KW

**Q.** What about the “FENa (fractional sodium excretion)” value (anesthetized rats [3]; huUgnA 100 nmol, Post-infuse) of the same molecule?
**A.** 0.27 ± 0.06 % of filtered

**Q.** What about the “UNaV (sodium excretion)” value (anesthetized rats [3]; huUgnA 100 nmol, Post-infuse) of the same molecule?
**A.** 328 ± 80 nEq/min/g KW

**Q.** And the “FENa (fractional sodium excretion)” value (anesthetized rats [3]; huUgnA 100 nmol, Pre-infuse)?
**A.** 0.06 ± 0.01 % of filtered

**Q.** What about the “UNaV (sodium excretion)” value (anesthetized rats [3]; huUgnA 100 nmol, Pre-infuse) of the same molecule?
**A.** 66 ± 9 nEq/min/g KW

**Q.** And the “FENa (fractional sodium excretion)” value (anesthetized rats [3]; huUgnA 200 nmol, Infuse)?
**A.** 0.11 ± 0.02 % of filtered

**Q.** And the “UNaV (sodium excretion)” value (anesthetized rats [3]; huUgnA 200 nmol, Infusion)?
**A.** 120.6 ± 18 nEq/min/g KW

**Q.** And the “FENa (fractional sodium excretion)” value (anesthetized rats [3]; huUgnA 200 nmol, Post-infuse)?
**A.** 0.29 ± 0.03 % of filtered

**Q.** What about the “UNaV (sodium excretion)” value (anesthetized rats [3]; huUgnA 200 nmol, Post-infuse) of the same molecule?
**A.** 342 ± 51 nEq/min/g KW

**Q.** And the “FENa (fractional sodium excretion)” value (anesthetized rats [3]; huUgnA 200 nmol, Pre-infuse)?
**A.** 0.06 ± 0.01 % of filtered

**Q.** What about the “UNaV (sodium excretion)” value (anesthetized rats [3]; huUgnA 200 nmol, Pre-infuse) of the same molecule?
**A.** 67 ± 1 nEq/min/g KW

**Q.** And the “UNaV time course, ANOVA vs control” value (anesthetized rats [3]; infusion period (p<0.05) and post infusion period (p<0.001))?
**A.** significant increase

**Q.** And the “shape of natriuretic dose-response relationship” value (anesthetized rats [3]; rat, in vivo)?
**A.** bell-shaped
